From patent US11020395B2, “Cycloalkyl substituted triazole compounds as agonists of the APJ receptor” (AMGEN INC., priority 2016, dated 2021)
Where two headings read alike, the source gives them in different places.

Biological target: human APJ receptor (Homo sapiens (Human), UniProt P35414)
Assay: [35S]GTPγS binding assay on membranes from CHO cells stably expressing human APJ receptor
Format: biochemical
Settings: [35S]GTPγS SPA
Description: [^35S]GTPγS Binding The human APJ receptor was cloned by polymerase chain reaction and the gene encoding the receptor was subcloned in pFLAG-CMV™-3 expression vector (Sigma, Saint Louis, Mo. USA) in-house at Amgen. A GTPγS binding assay was performed on membranes prepared from CHO cells stably expressing human APJ receptor. The optimum experimental conditions for the concentrations of GDP, MgCl2, and NaCl in the assay buffer were initially determined. […] Incubation was at RT for 90 min and the microplate was read using a ViewLux™ ultra HTS Microplate Imager (PerkinElmer, Inc.). All the results presented are means of several independent experiments and analyzed by non-linear regression methods using the commercially available program Prism (GraphPad, San Diego, Calif.) providing the EC50 values detailed in Table 25.

[1] = read-out: Activity hAPJ SPA EC50 IP

human APJ receptor, sequence (P35414 whole entry): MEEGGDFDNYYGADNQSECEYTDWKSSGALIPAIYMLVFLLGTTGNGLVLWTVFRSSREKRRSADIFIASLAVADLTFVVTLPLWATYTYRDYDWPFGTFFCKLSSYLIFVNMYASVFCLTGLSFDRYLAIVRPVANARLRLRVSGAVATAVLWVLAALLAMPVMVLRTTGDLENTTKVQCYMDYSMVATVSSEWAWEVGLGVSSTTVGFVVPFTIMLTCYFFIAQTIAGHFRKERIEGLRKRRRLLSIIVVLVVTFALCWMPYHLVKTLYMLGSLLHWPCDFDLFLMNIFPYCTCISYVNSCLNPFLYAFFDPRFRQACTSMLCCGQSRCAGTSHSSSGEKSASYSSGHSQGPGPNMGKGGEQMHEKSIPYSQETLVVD

Compound	EC50 [1]	EC50 (Activity hAPJ SPA EC50 IP)
COc1cccc(OC)c1-n1c(NS(=O)(=O)[C@@H](C)[C@H](OC)c2ncc(Cl)cn2)nnc1[C@H]1CC[C@@H](C#N)CC1 (single isomer, unassigned) [Example 199.0, (1R,2S)-1-(5-chloropyrimidin-2-yl)-N-(5-((1r,4R)-4-cyanocyclohexyl)-4-(2,6-dimethoxyphenyl)-4H-1,2,4-triazol-3-yl)-1-methoxypropane-2-sulfonamide or (1R,2S)-1-(5-chloropyrimidin-2-yl)-N-(5-((1s,4R)-4-cyanocyclohexyl)-4-(2,6-dimethoxyphenyl)-4H-1,2,4-triazol-3-yl)-1-methoxypropane-2-sulfonamide]	8.1 nM	–
COc1cccc(OC)c1-n1c(NS(=O)(=O)[C@@H](C)[C@@H](OC(C)C)c2ncc(C)cn2)nnc1[C@@H]1CCC(=O)C1 (single isomer, unassigned) [Example 230.0, (1S,2S)-N-(4-(2,6-dimethoxyphenyl)-5-((R)-3-oxocyclopentyl)-4H-1,2,4-triazol-3-yl)-1-isopropoxy-1-(5-methylpyrimidin-2-yl)propane-2-sulfonamide or (1S,2S)-N-(4-(2,6-dimethoxyphenyl)-5-((S)-3-oxocyclopentyl)-4H-1,2,4-triazol-3-yl)-1-isopropoxy-1-(5-methylpyrimidin-2-yl)propane-2-sulfonamide]	190 nM	–
COCC(COC)n1c(NS(=O)(=O)[C@@H](C)[C@H](OC)c2ncc(Cl)cn2)nnc1[C@H]1C[C@H](CO)C1 (single isomer, unassigned) [Example 130.0, (1R,2S)-1-(5-chloropyrimidin-2-yl)-N-(4-(1,3-dimethoxypropan-2-yl)-5-((1r,3S)-3-(hydroxymethyl)cyclobutyl)-4H-1,2,4-triazol-3-yl)-1-methoxypropane-2-sulfonamide or (1R,2S)-1-(5-chloropyrimidin-2-yl)-N-(4-(1,3-dimethoxypropan-2-yl)-5-((1s,3R)-3-(hydroxymethyl)cyclobutyl)-4H-1,2,4-triazol-3-yl)-1-methoxypropane-2-sulfonamide]	1500 nM	–
COc1cccc(OC)c1-n1c(NS(=O)(=O)[C@@H](C)[C@H](C)c2ncc(Cl)cn2)nnc1C1CCC1 [Example 143.0]	4.1 nM	–
COc1ncnc(OC)c1-n1c(NS(=O)(=O)[C@@H](C)[C@H](C)c2ncc(Cl)cn2)nnc1[C@@H]1CC[C@@H]1C(F)F (stereo in doubt) [Example 166.0]	20 nM	–
COc1ncnc(OC)c1-n1c(NS(=O)(=O)[C@@H](C)[C@H](C)c2cnc(C)cn2)nnc1C1CCC1 [Example 88.0, (2S,3R)-N-(5-cyclobutyl-4-(4,6-dimethoxy-5-pyrimidinyl)-4H-1,2,4-triazol-3-yl)-3-(5-methyl-2-pyrazinyl)-2-butanesulfonamide]	42 nM	–
COc1cccc(OC)c1-n1c(NS(=O)(=O)[C@@H](C)[C@H](OC)c2ncc(C)cn2)nnc1C1CC1 [Example 16.0, (1R,2S)—N-(5-Cyclopropyl-4-(2,6-dimethoxyphenyl)-4H-1,2,4-triazol-3-yl)-1-methoxy-1-(5-methyl-2-pyrimidinyl)-2-propanesulfonamide]	–	22 nM
COc1ncnc(OC)c1-n1c(NS(=O)(=O)[C@@H](C)[C@H](OC)c2ncc(Cl)cn2)nnc1[C@H]1C[C@@H](Cl)C1 (single isomer, unassigned) [Example 165.0, (1R,2S)-1-(5-chloropyrimidin-2-yl)-N-(4-(4,6-dimethoxypyrimidin-5-yl)-5-((1s,3R)-3-chlorocyclobutyl)-4H-1,2,4-triazol-3-yl)-1-methoxypropane-2-sulfonamide or (1R,2S)-1-(5-chloropyrimidin-2-yl)-N-(4-(4,6-dimethoxypyrimidin-5-yl)-5-((1r,3S)-3-chlorocyclobutyl)-4H-1,2,4-triazol-3-yl)-1-methoxypropane-2-sulfonamide]	9.7 nM	–
COc1cccc(OC)c1-n1c(NS(=O)(=O)[C@@H](C)[C@H](OC)c2ncc(C)cn2)nnc1[C@H]1C[C@H](Cl)C1 (single isomer, unassigned) [Example 192.0, (1R,2S)-N-(5-((1r,3S)-3-chlorocyclobutyl)-4-(2,6-dimethoxyphenyl)-4H-1,2,4-triazol-3-yl)-1-methoxy-1-(5-methylpyrimidin-2-yl)propane-2-sulfonamide or (1R,2S)-N-(5-((1s,3R)-3-chlorocyclobutyl)-4-(2,6-dimethoxyphenyl)-4H-1,2,4-triazol-3-yl)-1-methoxy-1-(5-methylpyrimidin-2-yl)propane-2-sulfonamide]	2.9 nM	–
COc1ncnc(OC)c1-n1c(NS(=O)(=O)[C@@H](C)[C@H](C)c2ncc(C)cn2)nnc1C1CC1 [Example 3.0, (2S,3R)-N-(5-cyclopropyl-4-(4,6-dimethoxy-5-pyrimidinyl)-4H-1,2,4-triazol-3-yl)-3-(5-methyl-2-pyrimidinyl)-2-butanesulfonamide]	56 nM	–
COc1cccc(OC)c1-n1c(NS(=O)(=O)[C@@H](C)[C@H](OC)c2ncc(Cl)cn2)nnc1C1CCC1C#N (single isomer, unassigned) [Example 169.0, (1R,2S)-1-(5-chloropyrimidin-2-yl)-N-(5-((1R,2S)-2-cyanocyclobutyl)-4-(2,6-dimethoxyphenyl)-4H-1,2,4-triazol-3-yl)-1-methoxypropane-2-sulfonamide or (1R,2S)-1-(5-chloropyrimidin-2-yl)-N-(5-((1S,2R)-2-cyanocyclobutyl)-4-(2,6-dimethoxyphenyl)-4H-1,2,4-triazol-3-yl)-1-methoxypropane-2-sulfonamide]	21 nM	–
(1R,2S)-1-(5-chloropyrimidin-2-yl)-N-(4-(2,6-dimethoxyphenyl)-5-((S)-spiro[2.2]pentan-1-yl)-4H-1,2,4-triazol-3-yl)-1-methoxypropane-2-sulfonamide or (1R,2S)-1-(5-chloropyrimidin-2-yl)-N-(4-(2,6-dimethoxyphenyl)-5-((R)-spiro[2.2]pentan-1-yl)-4H-1,2,4-triazol-3-yl)-1-methoxypropane-2-sulfonamide [Example 223.0]	1.2 nM	–
COc1cccc(OC)c1-n1c(NS(=O)(=O)[C@@H](C)[C@H](OC)c2ncc(Cl)cn2)nnc1[C@H]1C[C@H](C(F)(F)F)C1 (single isomer, unassigned) [Example 150.0, (1R,2S)-1-(5-chloropyrimidin-2-yl)-N-(4-(2,6-dimethoxyphenyl)-5-((1r,3S)-3-(trifluoromethyl)cyclobutyl)-4H-1,2,4-triazol-3-yl)-1-methoxypropane-2-sulfonamide or (1R,2S)-1-(5-chloropyrimidin-2-yl)-N-(4-(2,6-dimethoxyphenyl)-5-((1s,3R)-3-(trifluoromethyl)cyclobutyl)-4H-1,2,4-triazol-3-yl)-1-methoxypropane-2-sulfonamide]	6.8 nM	–
COc1cccc(OC)c1-n1c(NS(=O)(=O)[C@@H](C)[C@H](OC)c2ncc(Cl)cn2)nnc1C1CC(C)(C)C1 [Example 119.0]	0.79 nM	–
COc1cccc(OC)c1-n1c(NS(=O)(=O)[C@@H](C)[C@H](C)c2ncc(C)cn2)nnc1C1(c2ccccn2)CC1 [Example 126.0]	4200 nM	–
COc1ncnc(OC)c1-n1c(NS(=O)(=O)[C@@H](C)[C@H](OC)c2ncc(Cl)cn2)nnc1[C@H]1CC[C@@H](C(F)(F)F)CC1 (single isomer, unassigned) [Example 172.0, (1R,2S)-1-(5-chloropyrimidin-2-yl)-N-(4-(4,6-dimethoxypyrimidin-5-yl)-5-((1s,4R)-4-(trifluoromethyl)cyclohexyl)-4H-1,2,4-triazol-3-yl)-1-methoxypropane-2-sulfonamide or (1R,2S)-1-(5-chloropyrimidin-2-yl)-N-(4-(4,6-dimethoxypyrimidin-5-yl)-5-((1r,4S)-4-(trifluoromethyl)cyclohexyl)-4H-1,2,4-triazol-3-yl)-1-methoxypropane-2-sulfonamide]	370 nM	–
COc1cccc(OC)c1-n1c(NS(=O)(=O)[C@@H](C)[C@H](OC)c2ncc(Cl)cn2)nnc1[C@H]1CCC1(F)F (single isomer, unassigned) [Example 160.0, (1R,2S)-1-(5-chloropyrimidin-2-yl)-N-(5-((R)-2,2-difluorocyclobutyl)-4-(2,6-dimethoxyphenyl)-4H-1,2,4-triazol-3-yl)-1-methoxypropane-2-sulfonamide or (1R,2S)-1-(5-chloropyrimidin-2-yl)-N-(5-((S)-2,2-difluorocyclobutyl)-4-(2,6-dimethoxyphenyl)-4H-1,2,4-triazol-3-yl)-1-methoxypropane-2-sulfonamide]	27 nM	–
COc1cccc(OC)c1-n1c(NS(=O)(=O)CCc2ncc(Cl)cn2)nnc1C1CCC1 [Example 210.0, 2-(5-chloro-2-pyrimidin-yl)-N-(5-cyclobutyl-4-(2,6-dimethoxyphenyl)-4H-1,2,4-triazol-3-yl)ethanesulfonamide]	15 nM	–
COc1cccc(OC)c1-n1c(NS(=O)(=O)[C@@H](C)[C@H](OC)c2ncc(Cl)cn2)nnc1[C@H]1CC[C@H](OC)C1 (single isomer, unassigned) [Example 214.0]	20 nM	–
COc1cccc(OC)c1-n1c(NS(=O)(=O)[C@@H](C)[C@H](OC)c2ncc(C)cn2)nnc1[C@H]1C[C@H](Cl)C1 (single isomer, unassigned) [Example 191.0, (1R,2S)-N-(5-((1r,3S)-3-chlorocyclobutyl)-4-(2,6-dimethoxyphenyl)-4H-1,2,4-triazol-3-yl)-1-methoxy-1-(5-methylpyrimidin-2-yl)propane-2-sulfonamide or (1R,2S)-N-(5-((1s,3R)-3-chlorocyclobutyl)-4-(2,6-dimethoxyphenyl)-4H-1,2,4-triazol-3-yl)-1-methoxy-1-(5-methylpyrimidin-2-yl)propane-2-sulfonamide]	7.5 nM	–
